Laboratory results published in patent publication US20240285551A1, “A SMALL MOLECULE TNF-a INHIBITOR AND PREPARATION METHOD AND USE THEREOF” (FUDAN UNIVERSITY, priority 2021, published 2024).

How the values were obtained:
IL-6 [1] = test: serum IL-6 protein by ELISA, DSS acute UC mice; assay type: in vivo; settings: 10 mg/kg
Experimental: (§1) Except for the normal group, all other groups of mice were allowed to freely drink a 3% DSS solution which was freshly prepared and replaced the next day (wherein the 3% DSS solution was prepared by weighing 3 g of a DSS powder (from MP Biomedicals, USA with a molecular weight of 36,000 to 50,000) and fully dissolving it in 100 mL of the drinking water for the mice); whereas the normal group was given blank drinking water; the control group mice drank water normally for 7 days, while the DSS group mice drank the 3% DSS solution freely for 7 days and were administrated for 6 days from the second day DSS was given. The mice were administered by gavage once a day with a volume of 10 mL/kg, wherein the normal control group and DSS group were gavaged with a solvent of 0.5% CMC-Na (wherein a 0.5% CMC-Na solution is at a concentration of 0.5 g/100 mL, the same below), while the other groups were separately gavaged with drugs dissolved in 0.5% CMC-Na.
(§2) To investigate the effects of compounds (R)-STU104, (S)-STU104, and (±)-STU104 on the secretion of such inflammatory factors as TNF-α, IL-1β, IL-6, and IL-23 by mice of the DSS induced acute ulcerative colitis model in C57 mice, we isolated serum after blood acquisition and detected the contents of such inflammatory factors as TNF-α, IL-1β, IL-6, and IL-23 in the serum of mice using ELISA.

[2] = tested on: DSS induced acute ulcerative colitis model in C57 mice; test: DSS induced acute ulcerative colitis in C57 mice (body weight, DAI, colon length, H&E pathology); assay type: in vivo; settings: gavage once a day
Experimental: as §1
The normal control group mice were vivacious with glossy fur, stable weight gain, and normal stools appearing elliptical or spindle shaped.
In order to further evaluate the disease development for each group of acute UC mice, we performed DAI scoring on the loose and bloody stools etc. for each mouse (see panel B1 in FIG. 3). […] As the experiment progressed, the disease became gradually worsened, with some animals experiencing severe bloody stools and significant emaciation.
(§3) After dissection, the colon of each mouse was taken and the length of the colon was measured separately.

TNF-α [3] = test: serum TNF-α protein by ELISA, DSS acute UC mice; assay type: in vivo; settings: 10 mg/kg
Experimental: as §1, §2

IL-1β [4] = test: serum IL-1β protein by ELISA, DSS acute UC mice; assay type: in vivo; settings: 10 mg/kg
Experimental: as §1

IL-23 [5] = test: colon tissue IL-23 mRNA by qPCR, DSS acute UC mice; assay type: in vivo; settings: 10 mg/kg
Experimental: as §1
(§4) After dissection, a segment of the colon was taken from the same part of each mouse, total RNAs were extracted from tissues, and mRNA expressions of such inflammatory factors as TNF-α, IL-1β, IL-6, and IL-23 in colon tissues of the mice were detected through qPCR.

TNF-α [6] = test: colon tissue TNF-α mRNA by qPCR, DSS acute UC mice; assay type: in vivo; settings: 10 mg/kg
Experimental: as §1, §4

IL-1β [7] = test: colon tissue IL-1β mRNA by qPCR, DSS acute UC mice; assay type: in vivo; settings: 10 mg/kg
Experimental: as §1, §4

TNF-α [8] = test: release of the inflammatory factor TNF-α by LPS induced macrophages (RAW264.7), RT-PCR; assay type: cell-based; settings: Mus musculus, RAW264.7, LPS 1 μg/ml, 24 hours, read-out: IC50 with respect to the release of the inflammatory factor TNF-α
Experimental: LPS (1 μg/ml) and different concentrations of (±)-STU104 or (R)-STU104 (0.1 to 50 μM) were added respectively after the cells grew to a fused state, and incubated together at 37° C. under 5% CO2 for 24 hours. A blank control group was established, and RT-PCR was employed to detect the inhibition states of TNF-α in cells by these compounds.

IL-6 [9] = test: colon tissue IL-6 mRNA by qPCR, DSS acute UC mice; assay type: in vivo; settings: 10 mg/kg
Experimental: as §1, §4

IL-23 [10] = test: serum IL-23 protein by ELISA, DSS acute UC mice; assay type: in vivo; settings: 10 mg/kg
Experimental: as §1, §2

[11] = tested on: chronic ulcerative colitis model in IL-10 whole gene knockout mice; test: chronic ulcerative colitis in IL-10 whole gene knockout mice (survival, body weight, colon length, H&E pathology); assay type: in vivo; settings: positive drug group, dose not given
Experimental: Ten C57 mice (aged 10-12 weeks, around 20 g) with an identified genotype of Wildtype were taken as the normal control group. […] The mice were administered by gavage once a day with a volume of 10 mL/kg, wherein the normal control group and DSS group were gavaged with a solvent of 0.5% CMC-Na while the other groups were separately gavaged with drugs dissolved in 0.5% CMC-Na.
as §3

IC50 (TNF-α [8]) | Compound | inhibition ratio of IL-6 protein content in serum (IL-6 [1]) | colon length recovery rate (inhibition of colon shortening) ([2]; 10 mg/kg) | recovery rate of colon pathological sections (H&E) ([2]; 10 mg/kg) | DAI score inhibition ratio ([2]; 10 mg/kg, day 7) | body weight recovery rate ([2]; 10 mg/kg, day 7) | inhibition ratio of TNF-α protein content in serum (TNF-α [3]) | inhibition ratio of IL-1β protein content in serum (IL-1β [4]) | inhibition ratio of IL-23 mRNA in colon tissues (IL-23 [5]) | inhibition ratio of TNF-α mRNA in colon tissues (TNF-α [6]) | inhibition ratio of IL-1β mRNA in colon tissues (IL-1β [7]) | inhibition ratio of IL-6 mRNA in colon tissues (IL-6 [9]) | inhibition ratio of IL-23 protein content in serum (IL-23 [10]) | colon length recovery rate (inhibition of colon shortening) ([2]; 50 mg/kg) | recovery rate of colon pathological sections (H&E) ([2]; 50 mg/kg) | body weight recovery rate ([2]; 50 mg/kg, day 7) | recovery rate of colon pathological sections (H&E) [11] | total mortality rate [11]
1270 nM | COc1ccc(C2CC(=O)c3cc(OC)cc(OC)c32)cc1 (racemic) [(±)-STU104] | 49.1% | 25.7% | 48.3% | 8.3% | 20.0% | 48.1% | 68.6% | 73.1% | 55.4% | 67.5% | 56.1% | 45.2% | – | – | – | – | –
– | Nc1ccc(O)c(C(=O)O)c1 [mesalazine, reference compound] | – | – | – | – | – | – | – | – | – | – | – | – | 26.4% | 38.0% | 7% | 44.3% | no deaths occurred
